Reference: patent US20080139794A1, “Accelerants for the modification of non-natural amino acids and non-natural amino acid polypeptides” (Ambrx, Inc., priority 2005, published 2008)

Experiments:
[1] = tested on: hGH with para-acetylphenylalanine substituted for tyrosine at position 35 (hGH-pAcF), oxime formation with mono hydroxylamine 30 K PEG; test: Screening of potential accelerants using 30 K PEG hGH-pAcF conjugation (SDS-PAGE); design: species or system human; details: 50 mM accelerant; hGH 8 mg/ml; hGH:PEG 1:2; 28° C.; 16 hours
Procedure: Human growth hormone (hGH) with para-acetylphenylalanine substituted for tyrosine at position 35 was used to screen a panel of 20 compounds (FIG. 5). hGH was buffer exchanged into hGH reaction buffer (20 mM NaOAc, 20 mg/ml glycine, 5 mg/ml Mannitol, 1 mM EDTA, pH 4.0) using a PD 10 column, and concentrated to 10 mg/ml using a Centrocon (10 K MWCO) concentrator. hGH (10 μl) was mixed with 3.6 μl mono hydroxylamine 30 K PEG (2.5 mM), 3 μl of potential accelerant solution (200 mM in hGH reaction buffer) and buffer to give a final volume of 30 μl. The molar ratio of hGH:PEG was 1:2. The reaction mixtures were incubated at 28° C. for 16 hours and 36 hours and analyzed by SDS-PAGE (FIG. 6). The last lane in each gel was a control reaction (no accelerant). Compounds 6, 7, 8, 10, and 20 were accelerants. Two compounds from the panel, compounds 7 and 20 (acetic hydrazide) (pictured in FIG. 5), were accelerants and were further evaluated under similar reaction conditions with a higher hGH protein concentration (8 mg/ml). Lane 1 was a reaction mixture with a hGH:PEG molar ratio of 1:2 and 50 mM of accelerant compound 7. Lane 2 was a reaction mixture with a hGH:PEG molar ratio of 1:2 and 50 mM of accelerant compound 20. Lane 3 was a reaction mixture with a hGH:PEG molar ratio of 1:2 with no accelerant. Lane 4 was a reaction mixture with a hGH:PEG molar ratio of 1:5 with no accelerant.

wild type hGH = wild type hGH (Homo sapiens, UniProt P01241); test: LCMS analysis of hGH after incubation with accelerant; details: wild type hGH 5.8 mg/ml; up to 200 mM accelerant; 28° C.; 48 hour
Procedure: In hGH reaction buffer, wild type hGH (5.8 mg/ml) was incubated with various concentrations of the accelerant acetic hydrazide (200 mM, 100 mM, 50 mM, 25 mM, 12.5 mM, 6.25 mM and 0 mM) at 28° C. for 48 hours. The accelerant was removed through dialysis (10 k MWCO). The resulting protein solutions were analyzed by LCMS (FIG. 8).]
The measured molecular weights of hGH in all the conditions are same and match theoretical value 22256.

scFv 108 259-pAcF [2] = test: One step dimerization of scFv-pAcF with homobifunctional 2 K hydroxylamine PEG linker (SDS-PAGE); details: 47 mM acetic hydrazide; 147 μM homobifunctional 2 K PEG linker; pH 4.0; 28° C.; without accelerant very little dimer after 20 hours
Procedure: Single chain Fv (scFv) 108 protein with para-acetylphenylalanine substituted at position 259 (scFv 108 259-pAcF) was used the following conjugation experiment. scFv 108 259-pAcF in storage buffer was buffer exchanged into reaction buffer (150 mM NaCl, 20 mM NaOAc, 5 mM EDTA, pH 4.0) using a PD 10 column. The protein solution was concentrated to 0.5 mM, mixed with hydroxylamine homobifunctional 2 K PEG linker 2.5 mM stock solution and supplemented with acetic hydrazide as accelerant. The final reaction mixture consisted of 147 μM homobifunctional 2 K PEG linker, the corresponding concentration of pAcF-substituted scFv and 47 mM acetic hydrazide. The reaction mixtures were incubated at 28° C. and analyzed at different time points (6 hours, 20 hours, 44 hours) by SDS-PAGE (FIG. 2).
To make the one-step reaction more efficient and more practical with the homobifunctional 2 K PEG linker, accelerants were used to facilitate the dimerization process. Without accelerant, very little dimer product could be detected after 20 hours by SDS-PAGE. Lane 4 of the 6 hour, 20 hour, and 44 hour gels show reaction mixtures with a scFv:PEG linker molar ratio of 2.0:1 without the accelerant acetic hydrazide. […] Lane 1 of the 6 hour, 20 hour, and 44 hour gels show reaction mixtures with a scFv:PEG linker molar ratio of 1.6:1 with acetic hydrazide. […]

scFv 108 259-pAcF [3] = test: Mono hydroxylamine 30 K PEG and scFv-pAcF conjugation (SDS-PAGE); details: 28° C.
Procedure: scFv 108 259-pAcF 0.5 mM stock solution in reaction buffer mentioned above (10 μl) is mixed with various amounts of mono hydroxylamine 30 K PEG 2.5 mM stock solution, 2.2 μl of 200 mM acetic hydrazide stock solution and reaction buffer. The reaction mixtures with a final reaction volume of 22 μl have different molar ratios of scFv:PEG (1:3 or 1:5). The accelerating effect of acetic hydrazide on conjugation of mono hydroxylamine 30 K PEG and scFv was evaluated at protein and PEG molar ratio of 1:3 and 1:5 with and without accelerant. The reaction mixtures were incubated at 28° C. and were analyzed at different time points (20 hours, 44 hours) by SDS-PAGE (FIG. 3). Lanes 1, 2, and 3 show 100%, 20%, and 10% of the starting scFv-pAcF, respectively. Lane 4 of the 20 hour and 44 hour gels show reaction mixtures with a scFv:PEG molar ratio of 1:3 with 20 mM acetic hydrazide. Lane 5 of the 20 hour and 44 hour gels show reaction mixtures with a scFv:PEG molar ratio of 1:3 without accelerant. Lane 6 of the 20 hour and 44 hour gels show reaction mixtures with a scFv:PEG molar ratio of 1:5 with 20 mM acetic hydrazide. […]
Similarly, the relative conjugation efficiency of different concentrations of the accelerant acetic hydrazide (5 mM, 20 mM, 80 mM) with a scFv:30 K PEG mono hydroxylamine molar ratio of 1:2 were evaluated (FIG. 4). […]

wild type hGH, sequence (P01241 with tags, fused parts or gaps): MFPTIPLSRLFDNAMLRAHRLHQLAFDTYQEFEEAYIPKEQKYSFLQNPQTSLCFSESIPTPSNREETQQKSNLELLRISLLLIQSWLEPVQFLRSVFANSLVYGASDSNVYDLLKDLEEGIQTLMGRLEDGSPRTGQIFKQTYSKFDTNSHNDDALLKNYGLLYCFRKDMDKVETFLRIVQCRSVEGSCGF

## CC(=O)NN [Compound 20, acetic hydrazide]
[1]
  acceleration of hGH-pAcF / 30 K PEG conjugation at higher protein concentration: shown to catalyze the reaction
Wild type hGH
  covalent modification of protein by accelerant (LCMS): no covalent modification could be detected
scFv 108 259-pAcF [2]
  dimer product formation: the dimer product appeared after 6 hours
scFv 108 259-pAcF [3]; 5 mM, 20 mM, 80 mM acetic hydrazide, scFv:PEG 1:2
  relative conjugation efficiency at different accelerant concentrations: the higher concentration of accelerant, the faster the conjugation
scFv 108 259-pAcF [3]; 20 mM acetic hydrazide, scFv:PEG 1:3 and 1:5, with and without accelerant, 20 hours, 44 hours
  accelerating effect on conjugation of mono hydroxylamine 30 K PEG and scFv: accelerates the conjugation reaction
